Where a name gives a salt, the structure may show the parent alone.
System: mice
Assay: SmartCube in vivo neuropharmacological behavioral assay
Settings: for minimal effective dose: Mus musculus, ip, dose having 50% or more total activity in SmartCube, i.p., read-out: MED (minimal effective dose); for AD: antidepressant, percent probability / AG: analgesic, percent probability / AP: antipsychotic, percent probability / AX: anxiolytic, percent probability / CE: cognitive enhancer, percent probability / HA: hallucinogenic, percent probability / MS: mood stabilizer, percent probability / PS, percent probability / SD: sedative hypnotic, percent probability / SE: side effects, percent probability / UN: uncharacterized CNS activity, percent probability / XG: anxiogenic, percent probability: SmartCube, i.p. 15 min before test, at the MED
Outline: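 Mice dosed i.p. with compound in Pharmasolve (NMP) 15 min before automated video capture of behavior; doses e.g. 0.3–30 mg/kg. Behavioral signature compared with reference-drug classes, giving per-class probability (0–100, 0 = LOQ); MED = lowest dose with ≥50% total activity.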

Row | Compound | minimal effective dose | AD: antidepressant, percent probability | AG: analgesic, percent probability | AP: antipsychotic, percent probability | AX: anxiolytic, percent probability | CE: cognitive enhancer, percent probability | HA: hallucinogenic, percent probability | MS: mood stabilizer, percent probability | PS, percent probability | SD: sedative hypnotic, percent probability | SE: side effects, percent probability | UN: uncharacterized CNS activity, percent probability | XG: anxiogenic, percent probability
1 | c1ccc2c(c1)C1CCC2N1 [Compound 41, hydrochloride] | 10 to 30 mg/kg | + (LOQ ≤ X < 5%) | ++ (5% ≤ X < 25%) | + (LOQ ≤ X < 5%) | ++ (5% ≤ X < 25%) | ++ (5% ≤ X < 25%) | + (LOQ ≤ X < 5%) | + (LOQ ≤ X < 5%) | + (LOQ ≤ X < 5%) | + (LOQ ≤ X < 5%) | + (LOQ ≤ X < 5%) | ++ (5% ≤ X < 25%) | + (LOQ ≤ X < 5%)
2 | Cc1cccc2c1C1CCC2N1C(C)C (centres unmarked) [Compound 31, 3-Methyl-11-(propan-2-yl)-11-azatricyclo[6.2.1.0^2,7]undeca-2,4,6-triene hydrochloride] | 10 to 30 mg/kg | ++ (5% ≤ X < 25%) | ++ (5% ≤ X < 25%) | + (LOQ ≤ X < 5%) | ++ (5% ≤ X < 25%) | + (LOQ ≤ X < 5%) | + (LOQ ≤ X < 5%) | + (LOQ ≤ X < 5%) | + (LOQ ≤ X < 5%) | ++ (5% ≤ X < 25%) | + (LOQ ≤ X < 5%) | +++ (25% ≤ X < 50%) | + (LOQ ≤ X < 5%)
3 | COc1ccc2c(c1)C1CCC2N1C(C)C (centres unmarked) [Compound 35, 4-Methoxy-11-(propan-2-yl)-11-azatricyclo[6.2.1.0^2,7]undeca-2,4,6-triene] | 1 to 10 mg/kg | + (LOQ ≤ X < 5%) | + (LOQ ≤ X < 5%) | + (LOQ ≤ X < 5%) | ++ (5% ≤ X < 25%) | + (LOQ ≤ X < 5%) | + (LOQ ≤ X < 5%) | + (LOQ ≤ X < 5%) | + (LOQ ≤ X < 5%) | +++ (25% ≤ X < 50%) | + (LOQ ≤ X < 5%) | ++ (5% ≤ X < 25%) | + (LOQ ≤ X < 5%)
4 | CC1=C(C)C2NC1c1ccccc12 [Compound 59, 9,10-Dimethyl-11-azatricyclo[6.2.1.0^2,7]undeca-2,4,6,9-tetraene hydrochloride] | 10 to 30 mg/kg | ++++ (50% ≤ X <1 00%) | + (LOQ ≤ X < 5%) | + (LOQ ≤ X < 5%) | ++ (5% ≤ X < 25%) | ++ (5% ≤ X < 25%) | ++ (5% ≤ X < 25%) | + (LOQ ≤ X < 5%) | + (LOQ ≤ X < 5%) | + (LOQ ≤ X < 5%) | + (LOQ ≤ X < 5%) | + (LOQ ≤ X < 5%) | + (LOQ ≤ X < 5%)
5 | CC(C)N1C2CCC1c1c(F)ccc(F)c12 [Compound 34, 3,6-Difluoro-11-(propan-2-yl)-11-azatricyclo[6.2.1.0^2,7]undeca-2,4,6-triene hydrochloride] | > 30 mg/kg | + (LOQ ≤ X < 5%) | + (LOQ ≤ X < 5%) | + (LOQ ≤ X < 5%) | + (LOQ ≤ X < 5%) | + (LOQ ≤ X < 5%) | + (LOQ ≤ X < 5%) | + (LOQ ≤ X < 5%) | + (LOQ ≤ X < 5%) | + (LOQ ≤ X < 5%) | + (LOQ ≤ X < 5%) | + (LOQ ≤ X < 5%) | + (LOQ ≤ X < 5%)

Source: US20230109801A1 (Blue Oak Pharmaceuticals, Inc., priority 2020, published 2023)
